Results on three compounds are retold here after patent US8933056B2, “Soft protease inhibitors and pro-soft forms thereof” (Trustees of Tufts College, priority 2005, dated 2015).

Where two headings read alike, the source gives them in different places.

Series [1] in a line: Inactivation at pH 7.8 followed by 1H NMR. The class given is physicochemical. The settings on record: sodium phosphate buffer; pH jump from pH 2 to pH 7.8, 1H NMR integrals fit to single exponential; read-out: half-life for the inactivation reaction.
In series [2] the target is T1, DPPIV (Homo sapiens (Human), UniProt P27487). The experiment in a line: physchem. Conditions: pH 7.8. The protocol: DPP IV inhibition was measured at various times after the pH jump and the IC50 values were plotted as a function of time. […] This value was fit to a single exponential.
T1 sequence (P27487 whole entry, species assumed): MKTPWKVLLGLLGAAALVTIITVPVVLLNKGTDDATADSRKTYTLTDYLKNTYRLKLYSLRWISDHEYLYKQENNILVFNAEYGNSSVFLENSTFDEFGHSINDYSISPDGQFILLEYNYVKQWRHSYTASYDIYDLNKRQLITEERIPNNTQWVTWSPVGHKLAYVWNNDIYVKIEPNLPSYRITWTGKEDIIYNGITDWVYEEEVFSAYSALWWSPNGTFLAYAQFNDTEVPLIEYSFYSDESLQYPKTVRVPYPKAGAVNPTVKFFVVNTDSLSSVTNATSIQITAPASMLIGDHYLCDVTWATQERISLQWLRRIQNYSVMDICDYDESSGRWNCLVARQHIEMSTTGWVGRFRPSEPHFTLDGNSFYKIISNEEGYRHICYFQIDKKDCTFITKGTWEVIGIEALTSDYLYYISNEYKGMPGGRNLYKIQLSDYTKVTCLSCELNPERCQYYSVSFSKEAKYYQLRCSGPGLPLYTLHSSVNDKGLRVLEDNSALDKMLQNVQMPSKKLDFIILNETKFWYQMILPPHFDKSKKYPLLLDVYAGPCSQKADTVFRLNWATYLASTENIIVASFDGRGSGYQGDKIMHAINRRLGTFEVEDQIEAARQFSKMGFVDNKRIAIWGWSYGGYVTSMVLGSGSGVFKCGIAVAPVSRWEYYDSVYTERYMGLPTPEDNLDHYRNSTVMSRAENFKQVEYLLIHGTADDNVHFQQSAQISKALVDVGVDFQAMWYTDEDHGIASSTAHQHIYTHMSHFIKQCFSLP
Series [3] concerns the target T1, DPPIV. Description: DPIV inhibition assay (Examples 2 and 3). The series is classed as biochemical. The settings on record: pH 2; read-out: IC50s DPPIV pH 2. The protocol:
(§1) The inhibitor solution is prepared by dissolving 3-5 mg of inhibitor in pH 2 solution (0.01 N HCl), such that the concentration of the solution is equal to 1 mg/10 mL. A 10 μL sample of this solution is then added to 990 μL of pH 8 buffer (0.1 M HEPES, 0.14 M NaCl), and the solution is allowed to stand at room temperature overnight.
(§2) The substrate solution is prepared by dissolving 2.0 mg of L-alanyl-L-proline-para-nitroanilide into 20 mL of pH 8 buffer.
(§3) 250 μL of enzyme solution is added to well #B1 to #H1, #A2 to #H2, and #A3 to #H3 of a 96 well plate, while well #A1 receives 250 μL of pH 8 buffer instead of enzyme solution.
(§4) A 1:10 dilution is then performed by adding inhibitor solution to #A5 and the solution is mixed well before transferring 10 μL of this solution from #A5 to #B5. The solution in #B5 is then mixed well before transferring 10 μL of this solution from #B5 to #C5. The solution in #C5 is then mixed well before transferring 10 μL of this solution from #C5 to #D5. The solution in #D5 is then mixed well before transferring 10 μL of this solution from #D5 to #E5. The solution in #E5 is then mixed well before transferring 10 μL of this solution from #E5 to #F5. The solution in #F5 is then mixed well before transferring 10 μL of this solution from #F5 to #G5. The solution in #G5 is then mixed well before transferring 10 μL of this solution from #G5 to #H5.
(§5) A 30 μL aliquot is then transferred from #H5 to #H3 for row H, and the contents are mixed well. The analogous procedure is repeated for rows G, F, E, D, C, B, and A sequentially. The plate is then shaken on a plate shaker for 5 min before allowing the plate to incubate at room temperature for an additional 5 min.
(§6) Once the plate has been allowed to incubate, 30 μL of substrate is added to each well except well #A1. […] The absorbance is then immediately read at a wavelength of 410 nm.
(§7) In this example, the assay is conducted for DPIV and DP8 or DP9. The ratio of IC50 values for each tested compound is calculated in order to determine the selectivity for the DPIV isoform. […]

Series [4] concerns the target DP9 (Homo sapiens (Human), UniProt Q86TI2). Description: Selectivity for dipeptidyl peptidase isoforms, DP9. The class given is biochemical. The protocol: as §1, §2, §3, §4, §5, §6, §7
In series [5] the target is DP-IV (Sus scrofa (Pig), UniProt P22411). The experiment in a line: DPP IV inhibition: thioxamide v. oxoamide. The class given is biochemical, porcine. The protocol: The inhibitory activity of a compound may be tested easily. […] A compound is then screened for its ability to inhibit the protease activity of DP-IV with respect to a […] substrate. […] Briefly, a reaction containing 50 micromol sodium Hepes (pH 7.8), 10 micromol Ala-Pro-p-nitroanilide, 6 milliunits of DP-IV, and 2% (vol/vol) dimethylformamide in a total volume of 1.0 mL. The reaction was initiated by the addition of enzyme and reaction rates were measured at 25 C; formation of reaction product (para-nitroanilide) in the presence and absence of a test compound can be detected photometrically, e.g., at 410 nm.
Sequence of DP-IV (P22411 whole entry): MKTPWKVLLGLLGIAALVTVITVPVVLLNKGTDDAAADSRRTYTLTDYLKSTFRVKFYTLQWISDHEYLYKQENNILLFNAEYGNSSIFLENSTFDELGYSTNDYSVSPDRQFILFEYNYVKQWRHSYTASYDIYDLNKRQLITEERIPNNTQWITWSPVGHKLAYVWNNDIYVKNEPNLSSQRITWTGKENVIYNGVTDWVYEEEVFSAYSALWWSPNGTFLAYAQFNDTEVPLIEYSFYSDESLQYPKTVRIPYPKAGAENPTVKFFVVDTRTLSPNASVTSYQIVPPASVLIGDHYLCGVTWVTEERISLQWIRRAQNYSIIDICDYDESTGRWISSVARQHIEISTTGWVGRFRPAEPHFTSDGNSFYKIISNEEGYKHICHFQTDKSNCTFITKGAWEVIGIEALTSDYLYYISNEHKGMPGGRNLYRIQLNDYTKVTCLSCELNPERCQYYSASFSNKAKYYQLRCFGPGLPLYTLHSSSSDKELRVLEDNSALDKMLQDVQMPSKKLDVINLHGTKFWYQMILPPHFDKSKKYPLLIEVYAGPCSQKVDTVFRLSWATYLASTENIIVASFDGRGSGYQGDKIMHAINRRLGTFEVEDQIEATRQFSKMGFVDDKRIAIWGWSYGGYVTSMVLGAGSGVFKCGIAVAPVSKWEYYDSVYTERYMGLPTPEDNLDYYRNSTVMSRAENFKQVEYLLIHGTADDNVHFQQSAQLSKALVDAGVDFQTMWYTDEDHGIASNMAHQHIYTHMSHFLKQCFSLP

Series [6] concerns the target DP8 (Homo sapiens (Human), UniProt Q6V1X1). The experiment in a line: Selectivity for dipeptidyl peptidase isoforms, DP8. The series is classed as biochemical. As for the experimental part: as §1, §2, §3, §4, §5, §6, §7

Sequence of DP9 (Q86TI2 whole entry, species assumed, canonical isoform): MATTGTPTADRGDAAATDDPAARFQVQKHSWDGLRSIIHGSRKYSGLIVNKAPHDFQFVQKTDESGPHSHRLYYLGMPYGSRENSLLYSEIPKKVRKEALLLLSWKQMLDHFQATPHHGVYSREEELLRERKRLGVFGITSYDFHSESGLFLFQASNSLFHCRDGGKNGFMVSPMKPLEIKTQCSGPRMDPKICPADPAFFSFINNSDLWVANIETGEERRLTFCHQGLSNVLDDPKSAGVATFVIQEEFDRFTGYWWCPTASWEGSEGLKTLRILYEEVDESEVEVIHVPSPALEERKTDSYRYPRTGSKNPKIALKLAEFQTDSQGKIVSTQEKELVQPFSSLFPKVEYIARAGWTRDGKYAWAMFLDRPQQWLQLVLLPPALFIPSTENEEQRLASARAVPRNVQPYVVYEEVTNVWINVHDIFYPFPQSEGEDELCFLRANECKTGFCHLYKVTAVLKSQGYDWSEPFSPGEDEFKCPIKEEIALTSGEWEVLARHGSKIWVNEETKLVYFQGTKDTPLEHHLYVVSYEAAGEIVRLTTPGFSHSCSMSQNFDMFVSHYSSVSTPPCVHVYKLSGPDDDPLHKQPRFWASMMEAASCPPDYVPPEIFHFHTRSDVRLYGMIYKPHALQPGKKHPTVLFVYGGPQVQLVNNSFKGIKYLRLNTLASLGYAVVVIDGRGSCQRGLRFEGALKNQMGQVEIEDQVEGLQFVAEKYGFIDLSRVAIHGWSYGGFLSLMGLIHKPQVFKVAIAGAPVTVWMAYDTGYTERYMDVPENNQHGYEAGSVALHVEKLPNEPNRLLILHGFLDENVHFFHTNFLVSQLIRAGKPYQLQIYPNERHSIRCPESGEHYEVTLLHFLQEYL
Sequence of DP8 (Q6V1X1 whole entry, species assumed, canonical isoform): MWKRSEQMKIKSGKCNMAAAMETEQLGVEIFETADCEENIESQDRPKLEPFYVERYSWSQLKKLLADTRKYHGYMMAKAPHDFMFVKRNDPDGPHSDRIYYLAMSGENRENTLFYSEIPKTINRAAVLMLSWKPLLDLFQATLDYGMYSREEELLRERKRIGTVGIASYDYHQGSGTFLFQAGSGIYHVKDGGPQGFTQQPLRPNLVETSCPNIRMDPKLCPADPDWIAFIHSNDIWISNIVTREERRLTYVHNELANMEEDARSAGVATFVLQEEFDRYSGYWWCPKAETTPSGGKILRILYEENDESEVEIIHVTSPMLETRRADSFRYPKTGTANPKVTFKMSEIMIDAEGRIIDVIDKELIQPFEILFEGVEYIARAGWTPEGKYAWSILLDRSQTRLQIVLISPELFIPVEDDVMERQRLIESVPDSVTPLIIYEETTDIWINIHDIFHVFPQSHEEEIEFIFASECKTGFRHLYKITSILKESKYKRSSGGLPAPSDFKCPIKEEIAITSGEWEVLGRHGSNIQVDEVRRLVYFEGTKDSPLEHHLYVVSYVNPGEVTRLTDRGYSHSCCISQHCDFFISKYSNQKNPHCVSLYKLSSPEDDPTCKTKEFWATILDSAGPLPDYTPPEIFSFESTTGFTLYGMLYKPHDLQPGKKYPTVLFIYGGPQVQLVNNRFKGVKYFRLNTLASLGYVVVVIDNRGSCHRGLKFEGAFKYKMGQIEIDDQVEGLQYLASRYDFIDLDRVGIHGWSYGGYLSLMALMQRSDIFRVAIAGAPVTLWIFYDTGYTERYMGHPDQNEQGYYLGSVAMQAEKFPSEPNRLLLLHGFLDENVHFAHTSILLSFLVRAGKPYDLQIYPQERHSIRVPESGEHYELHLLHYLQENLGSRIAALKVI

One may read the half-life as how long it takes for the measured level to halve. Consider `C[C@H](N)C(=O)N1CCC[C@H]1B(O)O` [Ala-boroPro, reference compound], for which the half-life in series [1] was 30 min.
In the case of `C[C@H](N)C(=S)N1CCC[C@H]1B(O)O` [Ala-boroPro Thioxamide], the half-life in series [2] was determined as 47 min; in series [1] it was 60 min.
In the case of `OB(O)[C@@H]1CCCN1C(=S)[C@@H]1CCCN1` [Pro-boroPro Thioxamide], the IC50 in series [3] was found to be 0.75 nM; in series [4] (pH 2, read-out: IC50s DP9 pH 2), 1.9 nM; in series [4] (pH 7.8, read-out: IC50s DP9 pH 7.8) it was 340 nM; in series [5] (pH 2.0, read-out: IC50 (pH 2.0)), 6.4 nM; in series [5] (pH 8.0, read-out: IC50 (pH 8.0)) it was 7000 nM; in series [6] (pH 2, read-out: IC50s DP8 pH 2), 2.5 nM. Further, in series [6] (pH 7.8, read-out: IC50s DP8 pH 7.8), the IC50 was 1800 nM. For the same compound, the “DP9 Ratio” value in series [4] (IC50 pH 7.8 to pH 2) amounted to 180. Moreover, the “Ratio DP9 To DPIV (pH 2)” value in series [4] (pH 2) was 2.5. The “Inactivation Index” value in series [5] (IC50 pH 8.0 to pH 2.0) is reported as 1,100. Moreover, the “DP8 Ratio” value in series [6] (IC50 pH 7.8 to pH 2) is given as 720. The “Ratio DPP8 to DPIV (pH 2)” value in series [6] (pH 2) was determined as 3.2.
